BindingDB's records for doi:10.1021/acs.biochem.6b01025 (Washington College, 2017)

Tests used:
[1] = molecular target: T1, Tyrosine-protein phosphatase non-receptor type 1 [1-301] (Homo sapiens, UniProt P18031); assay: PTP1B Inhibition Assay
T1 construct: 1-301
T1 sequence (P18031 whole entry): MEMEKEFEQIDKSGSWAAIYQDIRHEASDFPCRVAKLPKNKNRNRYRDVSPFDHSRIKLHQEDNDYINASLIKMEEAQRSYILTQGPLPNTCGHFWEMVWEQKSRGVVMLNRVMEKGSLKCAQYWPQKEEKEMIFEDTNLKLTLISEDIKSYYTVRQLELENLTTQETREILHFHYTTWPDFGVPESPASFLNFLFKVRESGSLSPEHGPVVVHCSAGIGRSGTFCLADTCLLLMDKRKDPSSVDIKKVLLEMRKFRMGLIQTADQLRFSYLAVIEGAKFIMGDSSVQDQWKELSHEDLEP
Protocol: Kinetic parameters were determined by fitting the reaction rates to different inhibition models as a function of the inhibitor and pNPP concentrations using GraphPad Prism version 6.0d. The total reaction volume in all cases was 500 μL, and the temperature was maintained at 25 °C using a water-regulated cuvette holder.

[2] = molecular target: T1, Tyrosine-protein phosphatase non-receptor type 1 [1-301]; assay: NMR Chemical Shift Titration Assay

SMILES: O=C(/C=C/c1ccc(O)c(O)c1)O[C@@H](C(=O)O)[C@@H](OC(=O)/C=C/c1ccc(O)c(O)c1)C(=O)O [Cichoric acid (CHA)]
- Ki [1]: 1400 µM
- Kd [2]: 1600 µM
